{"source": "patent US20180271863A1", "about": "“TARGETING P2 PURINERGIC RECEPTORS TO TREAT HEPATOCELLULAR CARCINOMA (HCC)” (Baylor College of Medicine, priority 2015, published 2018)", "type_in_all_cases": "cell-based, human", "key": {"Huh7 cells [1]": {"test_system": "Huh7 cells", "assay": "Western blotting for JNK phosphorylation in Huh7 cells", "conditions": "100 μM, 15 min", "procedure": "Applicants have previously shown that extracellular nucleotide-mediated activation of JNK signaling induces cell-cycle progression and proliferation of rat primary hepatocytes in vitro. To determine whether extracellular nucleotides induce JNK signaling in transformed hepatocytes, Huh7 cells were treated with nucleotides for 5, 15 and 30 min and total protein extracts were analyzed by Western blotting for JNK phosphorylation (Ser^Thr/Tyi). ATPγS treatment alone was sufficient to induce JNK phosphorylation as early as 15 min (1.7 fold) (FIG. 10A). […] Total protein extracts were obtained by homogenizing cells in total lysis buffer (50 mM Tris-HCl, pH 7.5, 0.5 M NaCl, 2 mM EGTA, 2 mM EDTA, 1.0% Triton X-100, 0.25% Deoxycholate, 1 m/ml pepstatin, 1.0 m/ml leupeptin, 1.0 m/ml aprotinin, 1.0 mM phenylmethylsulfonyl fluoride, 1.0 mM Dithiothreitol, 2.0 mM activated Na3VO4, and 2.0 mM NaF) and centrifuging at 14,000 rpm for 10 min (4° C.). Equal amounts of total proteins as determined by BCA protein Assay (Pierce, Rockford, Ill.) were analyzed by Western blotting. Blots were probed with antibody specific for a-tubulin or GAPDH to ensure equal loading of proteins in each lane."}, "Huh7 cells [2]": {"test_system": "Huh7 cells", "assay": "Western blotting for cleaved PARP (apoptosis marker)", "conditions": "antagonist treatment alone", "excerpt": "Arrows point to BrdU-positive cells, expressed as a percentage of total cells. Data represents mean±SEM, n=3-6, *p<0.05 vs. untreated. […] Data represents mean±SD, n=3, *p<0.05 vs. untreated, #p<0.05.\nApplicants' observations that P2X3 agonist 2-MeSATP treatment alone was sufficient to induce cyclin D3 expression (1.9 fold) and pre-treatment with an alternative P2X3 antagonist (A317491) attenuated ATP induced cyclin D3 expression in Huh7 cells further validated the role of P2X3 purinergic receptor activation in the induction of cell-cycle progression in HCC cells (FIGS. 11C-D). Furthermore, P2X3 antagonist treatment alone was sufficient to reduce the baseline BrdU-positive cells and cyclin protein expression in serum-free conditions, implicating P2X3 activation as a necessary facilitator of Huh7 cell cycle progression (FIGS. 11A-B).\n(§1) Total protein extracts were obtained by homogenizing cells in total lysis buffer (50 mM Tris-HCl, pH 7.5, 0.5 M NaCl, 2 mM EGTA, 2 mM EDTA, 1.0% Triton X-100, 0.25% Deoxycholate, 1 m/ml pepstatin, 1.0 m/ml leupeptin, 1.0 m/ml aprotinin, 1.0 mM phenylmethylsulfonyl fluoride, 1.0 mM Dithiothreitol, 2.0 mM activated Na3VO4, and 2.0 mM NaF) and centrifuging at 14,000 rpm for 10 min (4° C.). Equal amounts of total proteins as determined by BCA protein Assay (Pierce, Rockford, Ill.) were analyzed by Western blotting. […]"}, "SNU-387 cells [3]": {"test_system": "SNU-387 cells", "assay": "MTT assay of cell proliferation and viability, SNU-387", "conditions": "ATP 100 μM, 18 h", "procedure": "(§2) Normal human primary hepatocytes isolated from healthy adults (no known history of HCC) in suspension or freshly-frozen prior to shipment (Cryoport Systems, CA) were purchased from Triangle Research Labs, NC. Fresh hepatocytes were plated on collagen-coated tissue culture plates or glass coverslips in Williams E complete media with additives (10% fetal bovine serum, 2 mM glutamine, […] insulin, 4 ng/ml glucagon, […] transferrin, 2.5 ng/ml sodium selenite, 10,000 U/ml penicillin, […] streptomycin, 50 g/ml gentamycin) for 3 h to ensure hepatocyte adherence to plates. Subsequently, hepatocytes were maintained in Williams E minimal media free from serum and growth factors for 24 h prior to treatment. Human hepatocellular carcinoma derived Huh7, and Hep3B, were cultured in Minimum Essential Medium Eagle (MEM); SNU-387 was cultured in Roswell Park Memorial Institute (RPMI) medium and PLC/PRF/5 cultured in Dulbecco's Modified Eagle's medium (DMEM). All maintenance culture media were supplemented with 10% fetal bovine serum (FBS), L-Glutamine (2 mM), penicillin (100 units/ml) and streptomycin ([…]) at 37° C. and 5% CO2. […]\n(§3) Cell viability was determined using the 3-(4, 5-dimethylthiazol-2-yl)-2,5-diphenyltetrazolium (MTT, Sigma) assays. […] After shaking the plates for 30 min, the absorbance at 570 nm was measured (background subtraction at […])."}, "PLC/PRF/5 cells": {"test_system": "PLC/PRF/5 cells", "assay": "Western blotting of cyclin D3 in PLC/PRF/5 cells", "conditions": "ATP 24 hours, serum-free", "procedure": "(§4) HCC cells (Huh7, Hep3B, SNU-387, and PLC/PRF/5) maintained in serum-free conditions were treated with ATP for 24 hours and total protein extracts were analyzed by Western blotting for cyclin D3 expression. The α-tubulin was utilized as the protein loading control. Data represents mean±SD, n=3-6, *p<0.05 vs untreated (un).\n(§5) Normal human primary hepatocytes isolated from healthy adults (no known history of HCC) in suspension or freshly-frozen prior to shipment (Cryoport Systems, CA) were purchased from Triangle Research Labs, NC. […]\nas §1"}, "SNU-387 cells [4]": {"test_system": "SNU-387 cells", "assay": "Western blotting of cyclin D3 in SNU-387 cells", "conditions": "ATP 24 hours, serum-free", "procedure": "as §4, §5, §1"}, "Hep3B cells": {"test_system": "Hep3B cells", "assay": "MTT assay of cell proliferation and viability, Hep3B", "conditions": "ATP 100 μM, 18 h", "procedure": "as §2, §3"}}, "data": [{"compound": "Nc1ncnc2c1ncn2[C@@H]1O[C@H](COP(=O)(O)OP(=O)(O)OP(O)(O)=S)[C@@H](O)[C@H]1O", "note": "[ATPγS]", "values": [{"measurement": "JNK phosphorylation", "setting": "Huh7 cells [1]", "result": 1.7, "unit": "fold"}]}, {"compound": "COc1cc(C(C)C)c(Oc2cnc(N)nc2N)cc1I", "note": "[AF-353]", "values": [{"measurement": "cleaved PARP protein expression (marker of apoptosis)", "setting": "Huh7 cells [2]", "result": "increased"}]}, {"compound": "Nc1ncnc2c1ncn2[C@@H]1O[C@H](COP(=O)(O)OP(=O)(O)OP(=O)(O)O)[C@@H](O)[C@H]1O", "note": "[ATP]", "values": [{"measurement": "increase in cell proliferation and viability (MTT)", "setting": "SNU-387 cells [3]", "result": 90, "unit": "%"}, {"measurement": "cyclin D3 protein expression", "setting": "PLC/PRF/5 cells", "result": 1.4, "unit": "fold"}, {"measurement": "cyclin D3 protein expression", "setting": "SNU-387 cells [4]", "result": 1.6, "unit": "fold"}, {"measurement": "increase in cell proliferation and viability (MTT)", "setting": "Hep3B cells", "result": 81, "unit": "%"}]}]}
